Species: Rattus norvegicus
Test: DrugMatrix - Regimen: Daily Repeat
Format: toxicity, organism-based, Sprague-Dawley
Design: regimen Daily Repeat, gender Male, age 6-8 weeks
Conditions: in vivo, po, 80 mg/kg, route oral GAVAGE, dose level High, vehicle .5 % CMC; for ABSOLUTE BASOPHIL / ABSOLUTE EOSINOPHIL / ABSOLUTE LYMPHOCYTE / ABSOLUTE MONOCYTE / ABSOLUTE SEGMENTED NEUTROPHIL / BASOPHIL / EOSINOPHIL / ERYTHROCYTE COUNT / HEMATOCRIT / HEMOGLOBIN / LEUKOCYTE COUNT / LYMPHOCYTE / MEAN CORPUSCULAR HEMOGLOBIN / MEAN CORPUSCULAR HEMOGLOBIN CONCENTRATION / MEAN CORPUSCULAR VOLUME / MONOCYTE / NEUTROPHIL / PLATELET COUNT: tissue Blood; for ALANINE AMINOTRANSFERASE / ALBUMIN / ALKALINE PHOSPHATASE / ASPARTATE AMINOTRANSFERASE / BLOOD UREA NITROGEN / CHLORIDE / CHOLESTEROL / CREATINE PHOSPHOKINASE / CREATININE / GLUCOSE / LACTATE DEHYDROGENASE / LIPASE / PHOSPHORUS / POTASSIUM / SODIUM / TOTAL BILIRUBIN / TOTAL PROTEIN / URIC ACID: tissue Plasma

Structure (SMILES): O=c1cc(-c2ccccc2)oc2c1ccc1ccccc12 [ALPHA-NAPHTHOFLAVONE]
- ABSOLUTE BASOPHIL (120 h, time 5 day): 170 cells/µL
- ABSOLUTE EOSINOPHIL (120 h, time 5 day): 42.5 cells/µL
- ABSOLUTE LYMPHOCYTE (120 h, time 5 day): 11500 cells/µL
- ABSOLUTE MONOCYTE (120 h, time 5 day): 230 cells/µL
- ABSOLUTE SEGMENTED NEUTROPHIL (120 h, time 5 day): 1790 cells/µL
- BASOPHIL (120 h, time 5 day): 1.35%
- EOSINOPHIL (120 h, time 5 day): 0.35%
- ERYTHROCYTE COUNT (120 h, time 5 day): 7.43 x10E6/uL
- HEMATOCRIT (120 h, time 5 day): 46.52%
- HEMOGLOBIN (120 h, time 5 day): 15.82 G/DL
- LEUKOCYTE COUNT (120 h, time 5 day): 13.81 x10E3/uL
- LYMPHOCYTE (120 h, time 5 day): 82.92%
- MEAN CORPUSCULAR HEMOGLOBIN (120 h, time 5 day): 21.35 pg
- MEAN CORPUSCULAR HEMOGLOBIN CONCENTRATION (120 h, time 5 day): 34.08 G/DL
- MEAN CORPUSCULAR VOLUME (120 h, time 5 day): 62.67 fL
- MONOCYTE (120 h, time 5 day): 1.57%
- NEUTROPHIL (120 h, time 5 day): 13.3%
- PLATELET COUNT (120 h, time 5 day): 1518.75 x10E3/uL
- ALANINE AMINOTRANSFERASE (120 h, time 5 day): 31.25 u/L
- ALBUMIN (120 h, time 5 day): 3.65 G/DL
- ALKALINE PHOSPHATASE (120 h, time 5 day): 212.25 u/L
- ASPARTATE AMINOTRANSFERASE (120 h, time 5 day): 78.25 u/L
- BLOOD UREA NITROGEN (120 h, time 5 day): 9.25 mg/dL
- CHLORIDE (120 h, time 5 day): 108 MEQ/L
- CHOLESTEROL (120 h, time 5 day): 61 mg/dL
- CREATINE PHOSPHOKINASE (120 h, time 5 day): 190.25 u/L
- CREATININE (120 h, time 5 day): 0.53 mg/dL
- GLUCOSE (120 h, time 5 day): 111 mg/dL
- LACTATE DEHYDROGENASE (120 h, time 5 day): 112.75 u/L
- LIPASE (120 h, time 5 day): 16.75 u/L
- PHOSPHORUS (120 h, time 5 day): 12.3 mg/dL
- POTASSIUM (120 h, time 5 day): 6.75 MEQ/L
- SODIUM (120 h, time 5 day): 151.5 MEQ/L
- TOTAL BILIRUBIN (120 h, time 5 day): 0.23 mg/dL
- TOTAL PROTEIN (120 h, time 5 day): 6.07 G/DL
- URIC ACID (120 h, time 5 day): 0.72 mg/dL
- ABSOLUTE BASOPHIL (2184 h, time 91 day): 340 cells/µL
- ABSOLUTE EOSINOPHIL (2184 h, time 91 day): 100 cells/µL
- ABSOLUTE LYMPHOCYTE (2184 h, time 91 day): 10400 cells/µL
- ABSOLUTE MONOCYTE (2184 h, time 91 day): 180 cells/µL
- ABSOLUTE SEGMENTED NEUTROPHIL (2184 h, time 91 day): 1510 cells/µL
- BASOPHIL (2184 h, time 91 day): 2.59%
- EOSINOPHIL (2184 h, time 91 day): 0.83%
- ERYTHROCYTE COUNT (2184 h, time 91 day): 9.33 x10E6/uL
- HEMATOCRIT (2184 h, time 91 day): 49.58%
- HEMOGLOBIN (2184 h, time 91 day): 16.44 G/DL
- LEUKOCYTE COUNT (2184 h, time 91 day): 12.6 x10E3/uL
- LYMPHOCYTE (2184 h, time 91 day): 82.74%
- MEAN CORPUSCULAR HEMOGLOBIN (2184 h, time 91 day): 17.63 pg
- MEAN CORPUSCULAR HEMOGLOBIN CONCENTRATION (2184 h, time 91 day): 33.15 G/DL
- MEAN CORPUSCULAR VOLUME (2184 h, time 91 day): 53.18 fL
- MONOCYTE (2184 h, time 91 day): 1.38%
- NEUTROPHIL (2184 h, time 91 day): 12.04%
- PLATELET COUNT (2184 h, time 91 day): 1261.8 x10E3/uL
- ALANINE AMINOTRANSFERASE (2184 h, time 91 day): 28.3 u/L
- ALBUMIN (2184 h, time 91 day): 3.77 G/DL
- ALKALINE PHOSPHATASE (2184 h, time 91 day): 94.2 u/L
- ASPARTATE AMINOTRANSFERASE (2184 h, time 91 day): 64.7 u/L
- BLOOD UREA NITROGEN (2184 h, time 91 day): 15.9 mg/dL
- CHLORIDE (2184 h, time 91 day): 103.2 MEQ/L
- CHOLESTEROL (2184 h, time 91 day): 70.3 mg/dL
- CREATINE PHOSPHOKINASE (2184 h, time 91 day): 80.9 u/L
- CREATININE (2184 h, time 91 day): 0.54 mg/dL
- GLUCOSE (2184 h, time 91 day): 152 mg/dL
- LACTATE DEHYDROGENASE (2184 h, time 91 day): 46.3 u/L
- LIPASE (2184 h, time 91 day): 18.7 u/L
- PHOSPHORUS (2184 h, time 91 day): 8.35 mg/dL
- POTASSIUM (2184 h, time 91 day): 6.21 MEQ/L
- SODIUM (2184 h, time 91 day): 149.8 MEQ/L
- TOTAL BILIRUBIN (2184 h, time 91 day): 0.21 mg/dL
- TOTAL PROTEIN (2184 h, time 91 day): 7.38 G/DL
- URIC ACID (2184 h, time 91 day): 0.89 mg/dL
- ABSOLUTE BASOPHIL ([…], time 28 day): 200 cells/µL
- ABSOLUTE EOSINOPHIL ([…], time 28 day): 76 cells/µL
- ABSOLUTE LYMPHOCYTE ([…], time 28 day): 13000 cells/µL
- ABSOLUTE MONOCYTE ([…], time 28 day): 200 cells/µL
- ABSOLUTE SEGMENTED NEUTROPHIL ([…], time 28 day): 1710 cells/µL
- BASOPHIL ([…], time 28 day): 1.28%
- EOSINOPHIL ([…], time 28 day): 0.48%
- ERYTHROCYTE COUNT ([…], time 28 day): 8.57 x10E6/uL
- HEMATOCRIT ([…], time 28 day): 47.9%
- HEMOGLOBIN ([…], time 28 day): 15.96 G/DL
- LEUKOCYTE COUNT ([…], time 28 day): 15.29 x10E3/uL
- LYMPHOCYTE ([…], time 28 day): 85.76%
- MEAN CORPUSCULAR HEMOGLOBIN ([…], time 28 day): 18.62 pg
- MEAN CORPUSCULAR HEMOGLOBIN CONCENTRATION ([…], time 28 day): 33.3 G/DL
- MEAN CORPUSCULAR VOLUME ([…], time 28 day): 55.92 fL
- MONOCYTE ([…], time 28 day): 1.36%
- NEUTROPHIL ([…], time 28 day): 10.8%
- PLATELET COUNT ([…], time 28 day): 1456 x10E3/uL
- ALANINE AMINOTRANSFERASE ([…], time 28 day): 26.4 u/L
- ALBUMIN ([…], time 28 day): 3.66 G/DL
- ALKALINE PHOSPHATASE ([…], time 28 day): 157.4 u/L
- ASPARTATE AMINOTRANSFERASE ([…], time 28 day): 65.6 u/L
- BLOOD UREA NITROGEN ([…], time 28 day): 13.6 mg/dL
- CHLORIDE ([…], time 28 day): 104 MEQ/L
- CHOLESTEROL ([…], time 28 day): 49.8 mg/dL
- CREATINE PHOSPHOKINASE ([…], time 28 day): 102 u/L
- CREATININE ([…], time 28 day): 0.46 mg/dL
- GLUCOSE ([…], time 28 day): 153.8 mg/dL
- LACTATE DEHYDROGENASE ([…], time 28 day): 60 u/L
- LIPASE ([…], time 28 day): 19 u/L
- PHOSPHORUS ([…], time 28 day): 9.14 mg/dL
- POTASSIUM ([…], time 28 day): 5.7 MEQ/L
- SODIUM ([…], time 28 day): 151 MEQ/L
- TOTAL BILIRUBIN ([…], time 28 day): 0.22 mg/dL
- TOTAL PROTEIN ([…], time 28 day): 6.76 G/DL
- URIC ACID ([…], time 28 day): 0.26 mg/dL

Reference: ChEMBL document CHEMBL3885881, “DrugMatrix”
